Data published in patent US8993554B2, “Tetrahydroquinoline derivatives useful as bromodomain inhibitors” (GlaxoSmithKline LLC, priority 2011, dated 2015).
Where a name gives a salt, the structure may show the parent alone.

These compounds were tested on LPS induced IL-6 secretion from whole blood (assay: Measurement of LPS Induced IL-6 Secretion from Whole Blood). Conditions: IL-6 by immunoassay, LPS 200 ng/ml, 24 hours.
Format: cell-based
Method: Activation of monocytic cells by agonists of toll-like receptors such as bacterial lipopolysaccharide (LPS) results in production of key inflammatory mediators including IL-6. Such pathways are widely considered to be central to the pathophysiology of a range of auto-immune and inflammatory disorders.
Compounds to be tested are diluted to give a range of appropriate concentrations of which 1 μl of the diluted stocks is added to a 96 well plate. Following addition of whole blood (130 μl) the plates are incubated at 37 degrees (5% CO2) for 30 min before the addition of 10 μl of 2.8 ug/ml LPS, diluted in complete RPMI 1640 (final concentration=200 ng/ml), to give a total volume of 140 μl per well. After further incubation for 24 hours at 37 degrees, 140 μl of PBS are added to each well. The plates are sealed, shaken for 10 minutes and then centrifuged (2500 rpm×10 min). 100 μl of the supernatant are removed and IL-6 levels assayed by immunoassay (typically by MesoScale Discovery technology) either immediately or following storage at −20 degrees. Concentration response curves for each compound was generated from the data and an IC50 value was calculated.

IC50, 50.1 to 3160 nM:
CC(=O)N1c2ccc(-c3ccc(CCC(=O)NCCO)cc3)cc2[C@H](Nc2ccc(C#N)cn2)C[C@@H]1C [Example 2, 3-(4-((2S,4R)-1-Acetyl-4-((5-cyanopyridin-2-yl)amino)-2-methyl-1,2,3,4-tetrahydroquinolin-6-yl)phenyl)-N-(2-hydroxyethyl)propanamide]
CC(=O)N1c2ccc(-c3ccc(CC(=O)NCCO)cc3)cc2[C@H](Nc2ccc(C#N)cn2)C[C@@H]1C [Example 3, 2-(4-((2S,4R)-1-Acetyl-4-((5-cyanopyridin-2-yl)amino)-2-methyl-1,2,3,4-tetrahydroquinolin-6-yl)phenyl)-N-(2-hydroxyethyl)acetamide]
CC(=O)N1c2ccc(-c3ccc(CC(=O)NCCN(C)C)cc3)cc2[C@H](Nc2ccc(C#N)cn2)C[C@@H]1C [Example 5, 2-(4-((2S,4R)-1-Acetyl-4-((5-cyanopyridin-2-yl)amino)-2-methyl-1,2,3,4-tetrahydroquinolin-6-yl)phenyl)-N-(2-(dimethylamino)ethyl)acetamide]
CC(=O)N1c2ccc(-c3ccc(C(=O)NCCN)cc3)cc2[C@H](NC(=O)OC(C)C)C[C@@H]1C [Example 6, Isopropyl ((2S,4R)-1-acetyl-6-(4-((2-aminoethyl)carbamoyl)phenyl)-2-methyl-1,2,3,4-tetrahydroquinolin-4-yl)carbamate hydrochloride]
CC(=O)N1c2ccc(-c3ccc(C(=O)NCCN(C)C)cc3)cc2[C@H](NC(=O)OC(C)C)C[C@@H]1C [Example 7, Isopropyl ((2S,4R)-1-acetyl-6-(4-((2-(dimethylamino)ethyl)carbamoyl)phenyl)-2-methyl-1,2,3,4-tetrahydroquinolin-4-yl)carbamate]
CC(=O)N1c2ccc(-c3ccc(CC(=O)NCCN)cc3)cc2[C@H](NC(=O)OC(C)C)C[C@@H]1C [Example 9, Isopropyl ((2S,4R)-1-acetyl-6-(4-(2-((2-aminoethyl)amino)-2-oxoethyl)phenyl)-2-methyl-1,2,3,4-tetrahydroquinolin-4-yl)carbamate hydrochloride]
CC(=O)N1c2ccc(-c3ccc(C(=O)NCCN(C)C)cn3)cc2[C@H](Nc2ccc(C#N)cn2)C[C@@H]1C [Example 10, 6-((2S,4R)-1-acetyl-4-((5-cyanopyridin-2-yl)amino)-2-methyl-1,2,3,4-tetrahydroquinolin-6-yl)-N-(2-(dimethylamino)ethyl)nicotinamide]
CC(=O)N1c2ccc(-c3ccc(C(=O)NC(CO)CO)cn3)cc2[C@H](Nc2ccc(C#N)cn2)C[C@@H]1C [Example 11, 6-((2S,4R)-1-acetyl-4-((5-cyanopyridin-2-yl)amino)-2-methyl-1,2,3,4-tetrahydroquinolin-6-yl)-N-(1,3-dihydroxypropan-2-yl)nicotinamide]
CC(=O)N1c2ccc(-c3ccc(C(=O)NCCO)cn3)cc2[C@H](Nc2ccc(C#N)cn2)C[C@@H]1C [Example 12, 6-((2S,4R)-1-acetyl-4-((5-cyanopyridin-2-yl)amino)-2-methyl-1,2,3,4-tetrahydroquinolin-6-yl)-N-(2-hydroxyethyl)nicotinamide]
CC(=O)N1c2ccc(-c3ccc(C(=O)NCCO)cc3)cc2[C@H](Nc2ccc(C#N)cn2)C[C@@H]1C [Example 14, 4-((2S,4R)-1-acetyl-4-((5-cyanopyridin-2-yl)amino)-2-methyl-1,2,3,4-tetrahydroquinolin-6-yl)-N-(2-hydroxyethyl)benzamide]
CC(=O)N1c2ccc(-c3ccc(C(=O)NC(CO)CO)cc3)cc2[C@H](Nc2ccc(C#N)cn2)C[C@@H]1C [Example 15, 4-((2S,4R)-1-acetyl-4-((5-cyanopyridin-2-yl)amino)-2-methyl-1,2,3,4-tetrahydroquinolin-6-yl)-N-(1,3-dihydroxypropan-2-yl)benzamide]
CC(=O)N1c2ccc(-c3ccc(C(=O)NCCN(C)C)cc3)cc2[C@H](Nc2ccc(C#N)cn2)C[C@@H]1C [Example 16, 4-((2S,4R)-1-acetyl-4-((5-cyanopyridin-2-yl)amino)-2-methyl-1,2,3,4-tetrahydroquinolin-6-yl)-N-(2-(dimethylamino)ethyl)benzamide dihydrochloride]
CC(=O)N1c2ccc(-c3ccc(C(=O)NCCO)cc3)cc2[C@H](Nc2ccccn2)C[C@@H]1C [Example 19, 4-((2S,4R)-1-acetyl-2-methyl-4-(pyridin-2-ylamino)-1,2,3,4-tetrahydroquinolin-6-yl)-N-(2-hydroxyethyl)benzamide]
CC(=O)N1c2ccc(-c3ccc(C(=O)NCCN(C)C)cc3)cc2[C@H](Nc2ccccn2)C[C@@H]1C [Example 20, 4-((2S,4R)-1-acetyl-2-methyl-4-(pyridin-2-ylamino)-1,2,3,4-tetrahydroquinolin-6-yl)-N-(2-(dimethylamino)ethyl)benzamide]
CC(=O)N1c2ccc(-c3ccc(C(=O)NC(CO)CO)cc3)cc2[C@H](Nc2ccccn2)C[C@@H]1C [Example 21, 4-((2S,4R)-1-acetyl-2-methyl-4-(pyridin-2-ylamino)-1,2,3,4-tetrahydroquinolin-6-yl)-N-(1,3-dihydroxypropan-2-yl)benzamide]
CC(=O)N1c2ccc(-c3ccc(C(=O)NCCN)cc3)cc2[C@H](Nc2ccccn2)C[C@@H]1C [Example 22, 4-((2S,4R)-1-acetyl-2-methyl-4-(pyridin-2-ylamino)-1,2,3,4-tetrahydroquinolin-6-yl)-N-(2-aminoethyl)benzamide]
CC(=O)N1c2ccc(-c3ccc(C(=O)NCCN(C)C)cn3)cc2[C@H](Nc2ccccn2)C[C@@H]1C [Example 23, 6-((2S,4R)-1-acetyl-2-methyl-4-(pyridin-2-ylamino)-1,2,3,4-tetrahydroquinolin-6-yl)-N-(2-(dimethylamino)ethyl)nicotinamide]
CC(=O)N1c2ccc(-c3ccc(C(=O)NCCO)cn3)cc2[C@H](Nc2ccccn2)C[C@@H]1C [Example 24, 6-((2S,4R)-1-acetyl-2-methyl-4-(pyridin-2-ylamino)-1,2,3,4-tetrahydroquinolin-6-yl)-N-(2-hydroxyethyl)nicotinamide]
CC(=O)N1c2ccc(-c3ccc(C(=O)NC(CO)CO)cn3)cc2[C@H](Nc2ccccn2)C[C@@H]1C [Example 25, 6-((2S,4R)-1-acetyl-2-methyl-4-(pyridin-2-ylamino)-1,2,3,4-tetrahydroquinolin-6-yl)-N-(1,3-dihydroxypropan-2-yl)nicotinamide]
CC(=O)N1c2ccc(-c3ccc(C(=O)NCCN(C)C)nc3)cc2[C@H](Nc2ccc(C#N)cn2)C[C@@H]1C [Example 28, 5-((2S,4R)-1-acetyl-4-((5-cyanopyridin-2-yl)amino)-2-methyl-1,2,3,4 tetrahydroquinolin-6-yl)-N-(2-(dimethylamino)ethyl)picolinamide]
CC(=O)N1c2ccc(-c3ccc(C(=O)NCCO)nc3)cc2[C@H](Nc2ccc(C#N)cn2)C[C@@H]1C [Example 29, 5-((2S,4R)-1-acetyl-4-((5-cyanopyridin-2-yl)amino)-2-methyl-1,2,3,4-tetrahydroquinolin-6-yl)-N-(2-hydroxyethyl)picolinamide]
CC(=O)N1c2ccc(-c3ccc(C(=O)NC(CO)CO)nc3)cc2[C@H](Nc2ccc(C#N)cn2)C[C@@H]1C [Example 30, 5-((2S,4R)-1-acetyl-4-((5-cyanopyridin-2-yl)amino)-2-methyl-1,2,3,4tetrahydroquinolin-6-yl)-N-(1,3-dihydroxypropan-2-yl)picolinamide]
CC(=O)N1c2ccc(-c3ccc(C(=O)NCCCO)nc3)cc2[C@H](Nc2ccc(C#N)cn2)C[C@@H]1C [Example 31, 5-((2S,4R)-1-acetyl-4-((5-cyanopyridin-2-yl)amino)-2-methyl-1,2,3,4-tetrahydroquinolin-6-yl)-N-(3-hydroxypropyl)picolinamide]
CC(=O)N1c2ccc(-c3ccc(C(=O)N[C@H](C)CO)nc3)cc2[C@H](Nc2ccc(C#N)cn2)C[C@@H]1C [Example 32, 5-((2S,4R)-1-acetyl-4-((5-cyanopyridin-2-yl)amino)-2-methyl-1,2,3,4-tetrahydroquinolin-6-yl)-N—((R)-1-hydroxypropan-2-yl)picolinamide]
CC(=O)N1c2ccc(-c3ccc(C(=O)N4CCN(C)CC4)nc3)cc2[C@H](Nc2ccc(C#N)cn2)C[C@@H]1C [Example 34, 6-(((2S,4R)-1-acetyl-2-methyl-6-(6-(4-methylpiperazine-1-carbonyl)pyridin-3-yl)-1,2,3,4-tetrahydroquinolin-4-yl)amino)nicotinonitrile]
CC(=O)N1c2ccc(-c3ccc(C(=O)N4CC(N)C4)nc3)cc2[C@H](Nc2ccc(C#N)cn2)C[C@@H]1C [Example 37, 6-(((2S,4R)-1-acetyl-6-(6-(3-aminoazetidine-1-carbonyl)pyridin-3-yl)-2-methyl-1,2,3,4-tetrahydroquinolin-4-yl)amino)nicotinonitrile]
CC(=O)N1c2ccc(-c3ccc(C(=O)NCCN(C)C)cc3)cc2[C@H](Nc2ccc(Cl)cc2)C[C@@H]1C [Example 38, 4-((2S,4R)-1-acetyl-4-((4-chlorophenyl)amino)-2-methyl-1,2,3,4-tetrahydroquinolin-6-yl)-N-(2-(dimethylamino)ethyl)benzamide]
